According to patent USRE46397E1, “Slow release of organic salts of local anesthetics for pain relief” (SVIP5 LLC, priority 2007, dated 2017):
Where two headings read alike, the source gives them in different places.

Key:
[1] = cited from earlier work; for Onset: in vivo; for Duration: without epinephrine
[2] = cited from earlier work; for Maximum Dose: without epinephrine
male, Sprague-Dawley rat = assay: Radiant heat pain threshold test after introducing particles into a paraspinal pocket; assay type: in vivo; conditions: 20 seconds cut-off, treated right side
Protocol: To test the local anesthetic efficacy and duration of effect induced by bupivacaine palmitate particles, a treatment and control side in a male, Sprague-Dawley rat (250-300 g) was employed. The animal was anesthetized with isoflurane inhalation (2.5-3%), whereupon the back was partly shaved. A 16 g needle was introduced deep to the shaved skin on the left mid paraspinal back and moved side to side to clear a small (1.0 cm diameter) pocket. A similar procedure was performed on the right side. The needle was then used to introduce test local anesthetic bupivacaine palmitate particles into the pocket on the right side.
The rat was awakened and placed in a Decapicone for restraint. As restraint itself can produce endogenous analgesic effects, the animal was allowed to rest quietly in the cone for 15 min prior to any testing. Radiant heat from a focused projection bulb with area of approximately 0.5 cm^2 was then directed to the test areas to assess the pain threshold several times on each side. The light was applied until the rat attempted to move within the restraint cone, at which time the light heat stimulus was turned off. The light heat stimulus was never allowed to exceed a 20 seconds interval in order to avoid permanent damage to the skin or undue discomfort.
The post-procedural results at 15 min, 1 and 2 days are represented in average number of seconds before movement: […]

SMILES | Onset [1] | Duration (with Epinephrine) [1] | Duration [1] [min] | Maximum Dose (with Epinephrine) [2] | Maximum Dose [2] [mg/kg] | Maximum Dose ([2]; total in 24 hrs) [mg in 24 hrs] | average number of seconds before movement (male, Sprague-Dawley rat; Day 0 (15 min post-procedure), radiant heat) [s] | average number of seconds before movement (male, Sprague-Dawley rat; Day 1, radiant heat) [s] | average number of seconds before movement (male, Sprague-Dawley rat; Day 2, radiant heat) [s]
CCN(CC)CC(=O)Nc1c(C)cccc1C [Lidocaine, 2-(diethylamino)-N-(2,6-dimethylphenyl)-acetamide] | Rapid | (240 min) | 120 | (7 mg/kg) | 4.5 | – | – | – | –
Cc1cccc(C)c1NC(=O)C1CCCCN1C (stereo not shown) [Mepivacaine] | Rapid | (360 min) | 180 | (7 mg/kg) | 5 | – | – | – | –
CCN(CC)CCOC(=O)c1ccc(N)cc1Cl [Chloroprocaine] | Rapid | (90 min) | 30 | (15 mg/kg) | 10 | – | – | – | –
CCCCNc1ccc(C(=O)OCCN(C)C)cc1 [Tetracaine] | Slow | (10 h) | 180 | (2.5 mg/kg) | 1.5 | – | – | – | –
CCCNC(C)C(=O)Nc1ccccc1C (stereo not shown) [Prilocaine] | Medium | (360 min) | 90 | (7.5 mg/kg) | 5 | – | – | – | –
CCN(CC)CCOC(=O)c1ccc(N)cc1 [Procaine] | Slow | (90 min) | 45 | (10 mg/kg) | 8 | – | – | – | –
CCCCN1CCCC[C@H]1C(=O)Nc1c(C)cccc1C [Levobupivacaine] | Medium | (8-12 h) | 240 to 360 | – | 2.0 | 400 | – | – | –
CCCN1CCCC[C@H]1C(=O)Nc1c(C)cccc1C [Ropivacaine] | Medium | (6 h) | 180 | – | 2 to 3 | – | – | – | –
CCCCN1CCCCC1C(=O)Nc1c(C)cccc1C (stereo not shown) [Bupivacaine] | Slow | (8 h) | 240 | (3 mg/kg) | 2.5 | – | >20 | 16 | 7.6
CCCN(CC)C(CC)C(=O)Nc1c(C)cccc1C (stereo not shown) [Etidocaine] | Rapid | (8 h) | 240 | (4 mg/kg) | 2.5 | – | – | – | –
